In the supplement of paper PMC10307832:

Key:
Experiment in all cases: relative viability (nuclei count vs DMSO), 5 days (fraction); higher = more cells survive
[1] = compound: Cc1ccc(C(=O)Nc2cccc(C(F)(F)F)c2)cc1Nc1cncc(C(N)=O)c1 [ALW-II-49-7] + CC(=O)c1c(C)c2cnc(Nc3ccc(N4CCNCC4)cn3)nc2n(C2CCCC2)c1=O [Palbociclib] (partner 0.5 µM)
In short: (§1)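 Nuclei were stained with Hoechst during a one-step fixation (final 0.05% Triton X-100, 1% formaldehyde, 1 ug/ml Hoechst) carried out 5 days after dosing, then counted on 4× images. The cells, lung cancer lines in 1536-well plates, had been dosed by pin tool the day after seeding with one drug alone or a fixed anchor-drug dose plus five library-drug doses (not always all listed) in √10 steps. Relative viability is the nuclei count in treated wells divided by that in vehicle wells, and each value is the median of duplicate plates.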

XMD13-2 + Dasatinib = compound: C1CC1C(=O)NC2=NNC3=C2C=CC(=C3)C4=CC(=CC=C4)C(=O)NC5CC5 [XMD13-2] + Cc1nc(Nc2ncc(C(=O)Nc3c(C)cccc3Cl)s2)cc(N2CCN(CCO)CC2)n1 [Dasatinib] (partner 0.075 µM)
In short: as §1

Dasatinib + Pictilisib = compound: Cc1nc(Nc2ncc(C(=O)Nc3c(C)cccc3Cl)s2)cc(N2CCN(CCO)CC2)n1 [Dasatinib] + CS(=O)(=O)N1CCN(Cc2cc3nc(-c4cccc5[nH]ncc45)nc(N4CCOCC4)c3s2)CC1 [Pictilisib] (partner 1 µM)
In short: as §1

Dasatinib + Trametinib = compound: Cc1nc(Nc2ncc(C(=O)Nc3c(C)cccc3Cl)s2)cc(N2CCN(CCO)CC2)n1 [Dasatinib] + CC(=O)Nc1cccc(-n2c(=O)n(C3CC3)c(=O)c3c(Nc4ccc(I)cc4F)n(C)c(=O)c(C)c32)c1 [Trametinib] (partner 0.02 µM)
In short: as §1

Cell Line	relative viability ([1]; first compound 0.08 µM)	relative viability ([1]; first compound 0.253 µM)	relative viability ([1]; first compound 0.8 µM)	relative viability ([1]; first compound 2.53 µM)	relative viability ([1]; first compound 8 µM)	relative viability (XMD13-2 + Dasatinib; first compound 0.05 µM)	relative viability (XMD13-2 + Dasatinib; first compound 0.1581 µM)	relative viability (XMD13-2 + Dasatinib; first compound 0.5 µM)	relative viability (XMD13-2 + Dasatinib; first compound 1.581 µM)	relative viability (XMD13-2 + Dasatinib; first compound 5 µM)	relative viability (Dasatinib + Pictilisib; first compound 0.005 µM)	relative viability (Dasatinib + Pictilisib; first compound 0.01581 µM)	relative viability (Dasatinib + Pictilisib; first compound 0.05 µM)	relative viability (Dasatinib + Pictilisib; first compound 0.1581 µM)	relative viability (Dasatinib + Pictilisib; first compound 0.5 µM)	relative viability (Dasatinib + Trametinib; first compound 0.005 µM)	relative viability (Dasatinib + Trametinib; first compound 0.01581 µM)	relative viability (Dasatinib + Trametinib; first compound 0.05 µM)	relative viability (Dasatinib + Trametinib; first compound 0.1581 µM)	relative viability (Dasatinib + Trametinib; first compound 0.5 µM)
NCI-H3122	0.223	0.212	0.191	0.397	0.227	1.01	0.863	0.843	0.723	0.77	0.704	0.753	0.755	0.614	0.445	0.234	0.249	0.248	0.222	0.192
NCI-H1395	0.583	0.689	0.691	–	0.495	0.459	0.428	0.402	0.394	0.441	0.713	0.593	0.552	0.337	0.376	1.12	0.968	1.03	0.605	0.327
PC-14	0.454	0.568	0.471	0.551	0.41	0.279	0.296	0.335	0.242	0.317	0.631	0.458	0.529	0.232	0.0479	0.882	0.642	0.743	0.418	0.0498
BEN	0.468	0.452	0.482	0.439	0.481	0.321	0.327	0.343	0.246	0.331	0.446	0.37	0.323	0.297	0.294	0.891	0.614	0.8	0.528	0.511
EPLC-272H	0.273	0.319	0.317	0.346	0.343	0.39	0.31	0.503	0.317	0.269	0.312	0.354	0.276	0.221	0.147	0.312	0.267	0.307	0.222	0.141
LK-2	0.767	0.487	0.63	–	0.673	0.343	0.276	0.361	0.304	0.234	0.653	0.36	0.317	0.2	0.21	0.765	0.399	0.414	0.263	0.246
ChaGo-K-1	0.949	0.98	0.954	0.887	0.98	0.651	0.533	0.604	0.602	0.517	0.435	0.761	0.774	0.649	0.626	0.89	0.855	0.95	0.777	0.6
HCC-827	0.44	0.465	0.466	0.367	0.391	0.321	0.21	0.317	0.253	0.337	1.23	0.907	0.84	0.429	0.126	0.545	0.486	0.492	0.157	0.132
NCI-H1993	0.717	0.717	0.571	0.705	0.684	0.601	0.44	0.526	0.519	0.573	0.923	0.682	0.723	0.776	0.866	0.418	0.396	0.532	0.353	0.525
NCI-H647	0.422	0.307	0.444	0.294	0.238	0.17	0.172	0.207	0.13	0.115	0.258	0.308	0.182	0.11	0.122	0.372	0.224	0.244	0.145	0.116
NCI-H460	0.171	0.185	0.126	0.136	0.111	0.636	0.466	0.525	0.578	0.626	0.195	0.102	0.208	0.189	0.104	0.0853	0.0968	0.0795	0.0504	0.0455
EMC-BAC-2	0.499	0.519	0.488	0.437	0.391	0.32	0.323	0.202	0.302	0.25	0.455	0.344	0.327	0.243	0.185	0.965	0.93	0.923	0.857	0.716
NCI-H23	0.495	0.496	0.573	0.54	0.543	0.907	0.725	0.82	0.748	0.99	0.335	0.26	0.376	0.28	0.181	0.376	0.278	0.231	0.188	0.168
NCI-H1793	0.323	0.278	0.29	0.291	0.33	0.457	–	0.41	0.4	0.429	0.316	0.395	0.29	0.311	0.31	0.4	0.353	0.317	0.357	0.322
A-427	0.491	0.523	0.556	0.561	0.51	0.767	0.792	0.705	0.683	0.536	0.705	0.674	0.663	0.511	0.461	0.76	0.598	0.713	0.433	0.408
NCI-H322M	0.439	0.453	0.486	0.534	0.505	0.237	0.239	0.24	0.263	0.283	0.433	0.408	0.37	0.245	0.171	0.543	0.44	0.429	0.333	0.269

Cell Line	relative viability ([1]; first compound 0.08 µM)	relative viability ([1]; first compound 0.253 µM)	relative viability ([1]; first compound 0.8 µM)	relative viability ([1]; first compound 2.53 µM)	relative viability ([1]; first compound 8 µM)	relative viability (XMD13-2 + Dasatinib; first compound 0.05 µM)	relative viability (XMD13-2 + Dasatinib; first compound 0.1581 µM)	relative viability (XMD13-2 + Dasatinib; first compound 0.5 µM)	relative viability (XMD13-2 + Dasatinib; first compound 1.581 µM)	relative viability (XMD13-2 + Dasatinib; first compound 5 µM)	relative viability (Dasatinib + Pictilisib; first compound 0.005 µM)	relative viability (Dasatinib + Pictilisib; first compound 0.01581 µM)	relative viability (Dasatinib + Pictilisib; first compound 0.05 µM)	relative viability (Dasatinib + Pictilisib; first compound 0.1581 µM)	relative viability (Dasatinib + Pictilisib; first compound 0.5 µM)	relative viability (Dasatinib + Trametinib; first compound 0.005 µM)	relative viability (Dasatinib + Trametinib; first compound 0.01581 µM)	relative viability (Dasatinib + Trametinib; first compound 0.05 µM)	relative viability (Dasatinib + Trametinib; first compound 0.1581 µM)	relative viability (Dasatinib + Trametinib; first compound 0.5 µM)
COR-L23	0.276	0.271	0.245	0.274	0.259	0.585	0.544	0.477	0.42	0.497	0.714	0.608	0.744	0.34	0.207	0.563	0.416	0.48	0.444	0.281
NCI-H2085	0.441	0.448	0.466	0.432	0.454	0.265	0.246	0.232	0.235	0.243	0.399	0.31	0.242	0.218	0.167	0.485	0.297	0.195	0.214	0.159
NCI-H2087	0.227	0.261	0.239	0.255	0.22	0.997	0.826	0.938	0.87	0.796	0.952	1.01	1.17	0.737	0.494	0.291	0.2	0.178	0.124	0.101
HCC-366	0.354	0.454	0.388	0.299	0.326	0.775	0.48	0.783	0.585	0.662	0.0952	0.074	0.0543	0.0636	0.0661	0.283	0.182	0.218	0.16	0.117
NCI-H2126	0.367	0.332	0.337	0.365	0.374	0.76	0.595	0.633	0.535	0.561	0.512	0.446	0.443	0.387	0.288	0.641	0.425	0.551	0.424	0.309
SK-LU-1	0.332	0.35	0.337	0.26	0.323	0.195	0.185	0.199	0.164	0.199	0.369	0.312	0.244	0.201	0.174	0.349	0.306	0.291	0.247	0.252
HCC-78	0.434	0.47	0.488	0.509	0.416	0.565	0.321	0.36	0.347	0.351	0.185	0.212	0.183	0.159	0.178	0.676	0.679	0.643	0.444	0.354
LCLC-97TM1	0.198	0.215	0.214	0.188	0.235	0.829	0.784	0.839	0.728	0.695	0.206	0.206	0.192	0.18	0.12	0.221	0.14	0.174	0.0952	0.0916
NCI-H838	0.246	0.225	0.203	0.232	0.191	0.276	0.293	0.274	0.241	0.318	0.444	0.297	0.276	0.218	0.189	0.486	0.435	0.365	0.227	0.142
NCI-H520	0.219	0.234	0.205	0.213	0.21	0.213	0.261	0.208	0.231	0.182	0.278	0.265	0.213	0.148	0.157	0.614	0.322	0.298	0.144	0.205
NCI-H2347	0.528	0.452	0.43	0.432	0.478	0.638	0.292	0.284	0.298	0.304	0.419	0.328	0.316	0.493	0.347	0.25	0.277	0.221	0.157	0.164
NCI-H441	0.182	0.177	0.249	0.212	0.188	0.567	0.668	0.54	0.625	0.516	0.555	0.437	0.381	0.211	0.145	0.409	0.418	0.328	0.208	0.181
NCI-H1944	0.353	0.32	0.327	0.346	0.351	0.226	0.236	0.229	0.235	0.213	0.308	0.274	0.274	0.258	0.268	0.389	0.367	0.348	0.218	0.153
NCI-H2405	0.507	0.591	0.488	0.532	0.468	0.211	0.259	0.239	0.171	0.226	0.353	0.294	0.261	0.197	0.16	0.431	0.365	0.351	0.272	0.233
HCC-15	0.729	0.722	0.704	0.712	0.68	0.775	0.66	0.715	0.614	0.423	0.69	0.567	0.681	0.486	0.502	0.354	0.336	0.332	0.253	0.207
